# Reference: patent US8802597B2, “Herbicidal pyrimidines” (E I du Pont de Nemours and Company, priority 2003, dated 2014)
# Where two headings read alike, the source gives them in different places.
# Columns and labels:
# Experiment in all cases: Test C pre/postemergence
# Assay type in all cases: in vivo
# kochia (Kochia scoparia) = conditions: Bassia scoparia, post-emergence, Postemergence
# Summary of the method: (§1)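 Rating scale 0–100: 0 means no effect, 100 complete control; taken visually 12 to 14 days post-treatment versus controls. Pre- and postemergence greenhouse applications, postemergence at 1- to 4-leaf stage, non-phytotoxic solvent with surfactant as carrier.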
# [1] = system: morningglory (Ipomoea coccinea); conditions: Ipomoea; for pest or weed control at 62 g/ha: 62 g ai/ha; for pest or weed control at 125 g/ha: 125 g ai/ha; for pest or weed control at 250 g/ha: 250 g ai/ha; for pest or weed control at 500 g/ha: 500 g ai/ha
# Summary of the method: as §1
# [2] = system: pigweed (Amaranthus retroflexus); conditions: Amaranthus retroflexus; for pest or weed control at 62 g/ha: 62 g ai/ha; for pest or weed control at 125 g/ha: 125 g ai/ha; for pest or weed control at 250 g/ha: 250 g ai/ha; for pest or weed control at 500 g/ha: 500 g ai/ha
# Summary of the method: as §1
# [3] = system: velvetleaf (Abutilon theophrasti); conditions: Abutilon theophrasti; for pest or weed control at 62 g/ha: 62 g ai/ha; for pest or weed control at 125 g/ha: 125 g ai/ha; for pest or weed control at 250 g/ha: 250 g ai/ha; for pest or weed control at 500 g/ha: 500 g ai/ha
# Summary of the method: as §1
# [4] = system: woolly cupgrass (Eriochloa villosa); conditions: Eriochloa villosa; for pest or weed control at 62 g/ha: 62 g ai/ha; for pest or weed control at 125 g/ha: 125 g ai/ha; for pest or weed control at 250 g/ha: 250 g ai/ha; for pest or weed control at 500 g/ha: 500 g ai/ha
# Summary of the method: as §1
# [5] = system: yellow nutsedge (Cyperus esculentus); conditions: Cyperus; for pest or weed control at 62 g/ha: 62 g ai/ha; for pest or weed control at 125 g/ha: 125 g ai/ha; for pest or weed control at 250 g/ha: 250 g ai/ha; for pest or weed control at 500 g/ha: 500 g ai/ha
# Summary of the method: as §1
# [6] = post-emergence, Postemergence, scale 0 to 100 (0 no effect, 100 complete control), read-out: Morningglory plant response rating
# [7] = post-emergence, Postemergence, scale 0 to 100, read-out: Plant response rating, Morningglory
# [8] = pre-emergence, Preemergence, scale 0 to 100, read-out: Plant response rating, Morningglory
# [9] = post-emergence, Postemergence, scale 0 to 100 (0 no effect, 100 complete control), read-out: Pigweed plant response rating
# [10] = post-emergence, Postemergence, scale 0 to 100, read-out: Plant response rating, Pigweed
# [11] = pre-emergence, Preemergence, scale 0 to 100, read-out: Plant response rating, Pigweed
# [12] = post-emergence, Postemergence, scale 0 to 100 (0 no effect, 100 complete control), read-out: Velvetleaf plant response rating
# [13] = post-emergence, Postemergence, scale 0 to 100, read-out: Plant response rating, Velvetleaf
# [14] = pre-emergence, Preemergence, scale 0 to 100, read-out: Plant response rating, Velvetleaf
# [15] = post-emergence, Postemergence, scale 0 to 100 (0 no effect, 100 complete control), read-out: Cupgrass, Woolly plant response rating
# [16] = post-emergence, Postemergence, scale 0 to 100, read-out: Plant response rating, Cupgrass, Woolly
# [17] = pre-emergence, Preemergence, scale 0 to 100, read-out: Plant response rating, Cupgrass, Woolly
# [18] = post-emergence, Postemergence, scale 0 to 100 (0 no effect, 100 complete control), read-out: Nutsedge, Yellow plant response rating
# [19] = post-emergence, Postemergence, scale 0 to 100, read-out: Plant response rating, Nutsedge, Yellow
# [20] = pre-emergence, Preemergence, scale 0 to 100, read-out: Plant response rating, Nutsedge, Yellow
structure (smiles),measurement,setting,value
"Nc1nc(C2CC2)nc(C(=O)OCc2ccccc2)c1Br [Compound 22, phenylmethyl 6-amino-5-bromo-2-cyclopropyl-4-pyrimidinecarboxylate]",pest or weed control at 62 g/ha,"kochia (Kochia scoparia); 62 g ai/ha, scale 0 to 100 (0 no effect, 100 complete control), read-out: Kochia plant response rating",95%
same,pest or weed control at 125 g/ha,"kochia (Kochia scoparia); 125 g ai/ha, scale 0 to 100 (0 no effect, 100 complete control), read-out: Kochia plant response rating",100%
same,pest or weed control at 250 g/ha,"kochia (Kochia scoparia); 250 g ai/ha, scale 0 to 100, read-out: Plant response rating, Kochia",100%
same,pest or weed control at 500 g/ha,"kochia (Kochia scoparia); 500 g ai/ha, scale 0 to 100, read-out: Plant response rating, Kochia",100%
same,pest or weed control at 62 g/ha,[1]; [6],90%
same,pest or weed control at 125 g/ha,[1]; [6],90%
same,pest or weed control at 250 g/ha,[1]; [7],95%
same,pest or weed control at 500 g/ha,[1]; [7],100%
same,pest or weed control at 62 g/ha,"[1]; pre-emergence, Preemergence, scale 0 to 100, 0 no effect, 100 complete control, read-out: Plant response rating, Morningglory",100%
same,pest or weed control at 125 g/ha,[1]; [8],100%
same,pest or weed control at 250 g/ha,[1]; [8],100%
same,pest or weed control at 500 g/ha,[1]; [8],100%
same,pest or weed control at 62 g/ha,[2]; [9],85%
same,pest or weed control at 125 g/ha,[2]; [9],100%
same,pest or weed control at 250 g/ha,[2]; [10],100%
same,pest or weed control at 500 g/ha,[2]; [10],100%
same,pest or weed control at 62 g/ha,"[2]; pre-emergence, Preemergence, scale 0 to 100, 0 no effect, 100 complete control, read-out: Plant response rating, Pigweed",90%
same,pest or weed control at 125 g/ha,[2]; [11],100%
same,pest or weed control at 250 g/ha,[2]; [11],100%
same,pest or weed control at 500 g/ha,[2]; [11],100%
same,pest or weed control at 62 g/ha,[3]; [12],55%
same,pest or weed control at 125 g/ha,[3]; [12],60%
same,pest or weed control at 250 g/ha,[3]; [13],90%
same,pest or weed control at 500 g/ha,[3]; [13],95%
same,pest or weed control at 62 g/ha,"[3]; pre-emergence, Preemergence, scale 0 to 100, 0 no effect, 100 complete control, read-out: Plant response rating, Velvetleaf",90%
same,pest or weed control at 125 g/ha,[3]; [14],95%
same,pest or weed control at 250 g/ha,[3]; [14],100%
same,pest or weed control at 500 g/ha,[3]; [14],100%
same,pest or weed control at 62 g/ha,[4]; [15],60%
same,pest or weed control at 125 g/ha,[4]; [15],60%
same,pest or weed control at 250 g/ha,[4]; [16],60%
same,pest or weed control at 500 g/ha,[4]; [16],65%
same,pest or weed control at 62 g/ha,"[4]; pre-emergence, Preemergence, scale 0 to 100, 0 no effect, 100 complete control, read-out: Plant response rating, Cupgrass, Woolly",40%
same,pest or weed control at 125 g/ha,[4]; [17],95%
same,pest or weed control at 250 g/ha,[4]; [17],95%
same,pest or weed control at 500 g/ha,[4]; [17],95%
same,pest or weed control at 62 g/ha,[5]; [18],0%
same,pest or weed control at 125 g/ha,[5]; [18],0%
same,pest or weed control at 250 g/ha,[5]; [19],0%
same,pest or weed control at 500 g/ha,[5]; [19],0%
same,pest or weed control at 62 g/ha,"[5]; pre-emergence, Preemergence, scale 0 to 100, 0 no effect, 100 complete control, read-out: Plant response rating, Nutsedge, Yellow",0%
same,pest or weed control at 125 g/ha,[5]; [20],0%
same,pest or weed control at 250 g/ha,[5]; [20],95%
same,pest or weed control at 500 g/ha,[5]; [20],95%
